Source: patent publication US20210015098A1, “MOLECULES HAVING PESTICIDAL UTILITY, AND INTERMEDIATES, COMPOSITIONS, AND PROCESSES, RELATED THERETO” (DOW AGROSCIENCES LLC, priority 2018, published 2021)

Assays:
[1] = test system: Beet Armyworm (Spodoptera exigua, LAPHEG); assay: Bioassays on Beet Armyworm (BAW), 128-well diet tray assay; assay type: in vivo; settings: Beet Armyworm, Table ABC Biological Results, read-out: BAW (rating)
Description: (§1) Certain molecules disclosed in this document were tested against BAW and CL using procedures described in the following examples. In the reporting of the results, the “BAW & CL Rating Table” was used (See Table Section).
Bioassays on BAW were conducted using a 128-well diet tray assay. One to five second instar BAW larvae were placed in each well (3 mL) of the diet tray that had been previously filled with 1 mL of artificial diet to which 50 μg/cm^2 of the test molecule (dissolved in 50 μL of 90:10 acetone-water mixture) had been applied (to each of eight wells) and then allowed to dry. Trays were covered with a clear self-adhesive cover, vented to allow gas exchange, and held at 25° C., 14:10 light-dark for five to seven days. Percent mortality was recorded for the larvae in each well; activity in the eight wells was then averaged. The results are indicated in the table entitled “Table ABC: Biological Results” (See Table Section).

[2] = test system: Cabbage Looper (Trichoplusia ni, TRIPNI); assay: Bioassays on Cabbage Looper (CL), 128-well diet tray assay; assay type: in vivo; settings: Cabbage Looper, Table ABC Biological Results, read-out: CL (rating)
Description: as §1
Bioassays on CL were conducted using a 128-well diet tray assay. One to five second instar CL larvae were placed in each well (3 mL) of the diet tray that had been previously filled with 1 mL of artificial diet to which 50 μg/cm^2 of the test molecule (dissolved in 50 μL of 90:10 acetone-water mixture) had been applied (to each of eight wells) and then allowed to dry. Trays were covered with a clear self-adhesive cover, vented to allow gas exchange, and held at 25° C., 14:10 light-dark for five to seven days. Percent mortality was recorded for the larvae in each well; activity in the eight wells was then averaged. The results are indicated in the table entitled “Table ABC: Biological Results” (See Table Section).

For `O=C(CSCC(F)(F)F)Nc1ccc(NC(=O)c2cc(NC(=O)[C@H]3[C@H](c4ccc(F)c(C(F)(F)F)c4)C3(Cl)Cl)ccc2Cl)c(F)c1` [F52, 2-Chloro-5-((1R,3R)-2,2-dichloro-3-(4-fluoro-3-(trifluoromethyl)phenyl)cyclopropane-1-carboxamido)-N-(2-fluoro-4-(2-((2,2,2-trifluoroethyl)thio)acetamido)phenyl)benzamide], the pest or weed control at 50 µg/cm2 [1] was 50 to 100% and the pest or weed control at 50 µg/cm2 [2] was 50 to 100%.
Molecule `CC(SC(F)(F)F)C(=O)Nc1c(F)ccc(NC(=O)c2cc(NC(=O)[C@H]3[C@H](c4ccc(Cl)c(Cl)c4)C3(Cl)Cl)ccc2Cl)c1F` (stereo partly drawn) [F10, 2-Chloro-5-((1R,3R)-2,2-dichloro-3-(3,4-dichlorophenyl)cyclopropane-1-carboxamido)-N-(2,4-difluoro-3-(2-((trifluoromethyl)thio)propanamido)phenyl)benzamide] has a pest or weed control at 50 µg/cm2 [1] of 50 to 100% and a pest or weed control at 50 µg/cm2 [2] of 50 to 100%.
Molecule `O=C(CSC(F)(F)F)Nc1ccc(NC(=O)c2cc(NC(=O)[C@H]3[C@H](c4ccc(F)c(C(F)(F)F)c4)C3(Cl)Cl)ccc2Cl)c(F)c1` [F51, 2-Chloro-5-((1R,3R)-2,2-dichloro-3-(4-fluoro-3-(trifluoromethyl)phenyl)cyclopropane-1-carboxamido)-N-(2-fluoro-4-(2-((trifluoromethyl)thio)acetamido)phenyl)benzamide] has a pest or weed control at 50 µg/cm2 [1] of 50 to 100% and a pest or weed control at 50 µg/cm2 [2] of 50 to 100%.
`CSCC(=O)Nc1ccc(NC(=O)c2cc(NC(=O)[C@H]3[C@H](c4ccc(F)c(C(F)(F)F)c4)C3(Cl)Cl)ccc2Cl)c(F)c1` [F50, 2-Chloro-5-((1R,3R)-2,2-dichloro-3-(4-fluoro-3-(trifluoromethyl)phenyl)cyclopropane-1-carboxamido)-N-(2-fluoro-4-(2-(methylthio)acetamido)phenyl)benzamide] showed a pest or weed control at 50 µg/cm2 [1] of 50 to 100% and a pest or weed control at 50 µg/cm2 [2] of 50 to 100%.
Work on `CC(SC(F)(F)F)C(=O)Nc1c(F)ccc(NC(=O)c2cc(NC(=O)[C@H]3[C@H](c4cc(Cl)c(Cl)c(Cl)c4)C3(Cl)Cl)ccc2Cl)c1F` (stereo partly drawn) [F7, 2-Chloro-5-((1R,3R)-2,2-dichloro-3-(3,4,5-trichlorophenyl)cyclopropane-1-carboxamido)-N-(2,4-difluoro-3-(2-((trifluoromethyl)thio)propanamido)phenyl)benzamide] yielded a pest or weed control at 50 µg/cm2 [1] of 50 to 100% and a pest or weed control at 50 µg/cm2 [2] of 50 to 100%.
`O=C(CS(=O)(=O)CC(F)(F)F)Nc1c(F)ccc(NC(=O)c2cc(NC(=O)[C@H]3[C@H](c4cc(Cl)c(Cl)c(Cl)c4)C3(Cl)Cl)ccc2Cl)c1F` [F41, 2-Chloro-5-((1R,3R)-2,2-dichloro-3-(3,4,5-trichlorophenyl)cyclopropane-1-carboxamido)-N-(2,4-difluoro-3-(2-((2,2,2-trifluoroethyl)sulfonyl)acetamido)phenyl)benzamide] was tested, and the pest or weed control at 50 µg/cm2 [1] was 50 to 100% and the pest or weed control at 50 µg/cm2 [2] was 50 to 100%.
Molecule `O=C(CCSc1ccccc1)Nc1c(F)ccc(NC(=O)c2cc(NC(=O)[C@H]3[C@H](c4ccc(F)c(C(F)(F)F)c4)C3(Cl)Cl)ccc2Cl)c1F` [F20, 2-Chloro-5-((1R,3R)-2,2-dichloro-3-(4-fluoro-3-(trifluoromethyl)phenyl)cyclopropane-1-carboxamido)-N-(2,4-difluoro-3-(3-(phenylthio)propanamido)phenyl)benzamide] has a pest or weed control at 50 µg/cm2 [1] of 50 to 100% and a pest or weed control at 50 µg/cm2 [2] of 50 to 100%.
Work on `O=C(CS(=O)(=O)CC(F)(F)F)Nc1c(F)ccc(NC(=O)c2cc(NC(=O)[C@H]3[C@H](c4ccc(F)c(Cl)c4)C3(Cl)Cl)ccc2Cl)c1F` [F43, 2-Chloro-5-((1R,3R)-2,2-dichloro-3-(3-chloro-4-fluorophenyl)cyclopropane-1-carboxamido)-N-(2,4-difluoro-3-(2-((2,2,2-trifluoroethyl)sulfonyl)acetamido)phenyl)benzamide] yielded a pest or weed control at 50 µg/cm2 [1] of 50 to 100% and a pest or weed control at 50 µg/cm2 [2] of 50 to 100%.
